Reference: publication PMC5840523, “Assessment of a pretomanid analogue library for African trypanosomiasis: Hit-to-lead studies on 6-substituted 2-nitro-6,7-dihydro-5H-imidazo[2,1-b][1,3]thiazine 8-oxides” (Bioorganic & Medicinal Chemistry Letters, 2018)
Values after ≈ are worked out from the molar mass of the structure shown. Where two headings read alike, the source gives them in different places.

Key:
[1] = test system: T. b. brucei (TREU 667); details: cited from earlier work
[2] = test system: T. b. brucei 427; assay: T. b. brucei 427 growth inhibition (Scynexis); format: cell-based, Trypanosoma brucei brucei
[3] = test system: L929 mouse fibroblasts; assay: Cytotoxicity toward L929 mouse fibroblasts (Scynexis); format: cell-based
[4] = Human liver microsomal stability; format: in vitro ADME; details: pooled human liver microsomes
[5] = Mouse liver microsomal stability; format: in vitro ADME; details: CD-1 mouse liver microsomes
[6] = test system: T. b. brucei (EATRO 110); assay: Acute (stage 1) HAT infection mouse model; format: in vivo, T. b. brucei; female Swiss Webster mice
Procedure: Therefore, 24 was examined in a stage 1 HAT mouse model.[14] Briefly, dosing was orally once daily for four days, starting 24 h postinfection, and parasitemia was assessed weekly via tail vein blood smears (see the Supporting Information). Excellent activity was observed (Table 4), with 24 providing complete cures (i.e. parasite free blood smears after >30 days) to all mice at doses as low as 5 mg/kg, similar to the control drug pentamidine (given i.p. at 2 mg/kg), whereas the vehicle only mice died on day 7. […] Here, oral dosing of 24 (at 12.5 to 50 mg/kg once daily for seven days from day 21 postinfection) led to significant increases in survival times in comparison to untreated controls (66–70 days vs 31 days; Table 5), although cure rates were inadequate (0–20%). […]
Mouse Model f or Acu te HAT Inf ection. Compound 24 was tested for in vivo effi cac y against acute HAT infection caused b y T. b. brucei (EATRO 110 strain) at the Haskins Laboratories, Pace Universit y. […] Infected animals or th ose showing si gns of infectionwer e euthanized.Untreated infected contr ol animals died after 5-7 days; mice remaining parasite free for more than 30 da ys beyond the end of the tr eatment period w er e con sidered cur ed. […]

[7] = test system: T. b. brucei (TREU 667); assay: CNS (stage 2, chronic) HAT infection mouse model; format: in vivo, T. b. brucei; female Swiss Webster mice
Procedure: Therefore, 24 was examined in a stage 1 HAT mouse model.[14] Briefly, dosing was orally once daily for four days, starting 24 h postinfection, and parasitemia was assessed weekly via tail vein blood smears (see the Supporting Information). Excellent activity was observed (Table 4), with 24 providing complete cures (i.e. parasite free blood smears after >30 days) to all mice at doses as low as 5 mg/kg, similar to the control drug pentamidine (given i.p. at 2 mg/kg), whereas the vehicle only mice died on day 7. […]
Mouse Model for Chronic HAT Inf ection. Compound 24 was tested for in vi vo efficac y against chronic HAT infection caused b y T. b. brucei (TREU 667 strain) at the Haskin s Laboratories, Pace Universit y. […]
suspension formulation (0.8% CMC, 0.1% SDS in water) to groups of 8 or 10infected f emal e Swiss Webster mice, starting 21 d postinfection, according to a report ed method. 5 Animals remaining parasite free for more than 180 da ys beyond the end of the treatment period were […]

[8] = test system: T. b. brucei 427; assay: T. b. brucei growth inhibition (University of Antwerp); format: cell-based, Trypanosoma brucei brucei; details: for IC50: T. b. brucei 427, mean of 2 to 5 determinations, read-out: IC50 T. b. bruc
[9] = test system: T. b. rhodesiense; assay: T. b. rhodesiense growth inhibition (University of Antwerp); format: cell-based, Trypanosoma brucei rhodesiense; details: for IC50: mean of 2 to 5 determinations, read-out: IC50 T. b. rhod
[10] = test system: Trypanosoma cruzi; assay: T. cruzi growth inhibition (University of Antwerp); format: cell-based; details: mean of 2 to 5 determinations
[11] = test system: Leishmania infantum; assay: L. infantum growth inhibition (University of Antwerp); format: cell-based; details: mean of 2 to 5 determinations
[12] = test system: human lung fibroblasts (MRC-5 cells); assay: Cytotoxicity toward MRC-5 cells (University of Antwerp); format: cell-based
[13] = Kinetic solubility in water or 0.1 M HCl (ACSRC); format: physicochemical; details: read-out: aqueous solubility
[14] = in vitro; details: dog, MDCK-MDR1
[15] = 1.25 mg/kg orally once daily for 4 days
[16] = 2.5 mg/kg orally once daily for 4 days
[17] = 5 mg/kg orally once daily for 4 days
[18] = 12.5 mg/kg orally once daily for 4 days
[19] = 25 mg/kg orally once daily for 4 days
[20] = 50 mg/kg orally once daily for 4 days
[21] = 12.5 mg/kg orally once daily for 7 d from day 21 postinfection
[22] = 25 mg/kg orally once daily for 7 d from day 21 postinfection
[23] = 50 mg/kg orally once daily for 7 d from day 21 postinfection

In the case of `CC1(C)OB(O)c2cc(NC(=O)c3ccc(F)cc3C(F)(F)F)ccc21` [Compound 5], the cure rate ([1]; same CNS model, 25 mg/kg once daily for 7 days) is given as 100%.

In the case of `O=[N+]([O-])c1cn2c(n1)[S@+]([O-])C[C@@H](OCc1ccc(OC(F)(F)F)cc1)C2` [Compound 24], the “Selectivity Index” value ([2]; L929 vs T. b. brucei) is reported as > 143, the “potency relative to (6R) enantiomer 26 (fold more potent)” value ([2]; T. b. brucei) is reported as “more than 70 fold” and the “potency relative to cis isomer 25 (fold more potent)” value ([2]; T. b. brucei) is reported as 40 fold. For the same compound, the IC50 ([2]; Trypanosoma brucei, growth inhibition of T. b. brucei 427, mean ± SD) was 0.07 ± 0.005 µg/mL (≈ 0.179 µM), the IC50 [3] was > 10 µg/mL and the remaining at 1 h [4] was 82%. For the same compound, the remaining at 1 h [5] was 96%, the Cured [6, 15] was 0% and the Cured/Total [6, 15] was 0/4. The Mean survival [6, 15] was 7.5 days, the Cured [6, 16] was 25% and the Cured/Total [6, 16] was 1/4. The Mean survival [6, 16] was 13 days, the Cured [6, 17] was 100% and the Cured/Total [6, 17] was 4/4. For the same compound, the Mean survival [6, 17] was >30 days, the Cured [6, 18] was 100% and the Cured/Total [6, 18] was 5/5. For the same compound, the Mean survival [6, 18] was >30 days, the Cured [6, 19] was 100% and the Cured/Total [6, 19] was 5/5. The Mean survival [6, 19] was >30 days, the Cured [6, 20] was 100% and the Cured/Total [6, 20] was 5/5. For the same compound, the Mean survival [6, 20] was >30 days, the “lowest dose providing complete cures to all mice” value ([6]; orally once daily for four days) was 5 mg/kg and the “efficacy relative to results described for fexinidazole (4) (fold superior)” value ([6]; stage 1 HAT mouse model) was ~20 fold. For the same compound, the Cured [7, 21] was 0%, the Cured/Total [7, 21] was 0/8 and the Mean relapse time [7, 21] was 45 days. The Cured [7, 22] was 20%, the Cured/Total [7, 22] was 2/10 and the Mean relapse time [7, 22] was 70 days. For the same compound, the Cured [7, 23] was 0%, the Cured/Total [7, 23] was 0/10 and the Mean relapse time [7, 23] was 66 days. The cure rates ([7]; 12.5 to 50 mg/kg orally once daily for seven days from day 21) was 0–20%, the IC50 ([8]; Trypanosoma brucei) was 140 nM and the IC50 ([9]; Trypanosoma brucei, RHODESIENSE) was 130 nM. It also gave an IC50 ([10]; Trypanosoma cruzi) of 1400 nM, an IC50 ([11]; Leishmania infantum) of 10000 nM and an IC50 ([12]; Homo sapiens, MRC5, cytotoxicity toward human lung fibroblasts) of 50000 nM. The solubility at 15 min ([13]; water) was 106 µg/mL (≈ 271 µM).

For `O=[N+]([O-])c1cn2c(n1)[S+]([O-])CC(OCc1ccc(-c3ccc(OC(F)(F)F)cc3)cn1)C2` (stereo not drawn) [Compound 35, 2-Nitro-6-({5-[4-(trifluoromethoxy)phenyl]pyridin-2-yl}methoxy)-6,7-dihydro-5H-imidazo[2,1-b][1,3]thiazine 8-oxide], the remaining at 1 h [4] was 78%, the remaining at 1 h [5] was 72% and the “potency against T. b. brucei relative to 12 (fold greater)” value [8] was 9 fold. The IC50 [8] was 30 nM, the “potency against T. b. rhodesiense relative to 12 (fold higher)” value [9] was 11 fold and the IC50 [9] was 23 nM. For the same compound, the IC50 [10] was 67 nM, the IC50 [11] was 410 nM and the “selectivity index (MRC-5 IC50 / HAT IC50)” value [12] was > 500 times. The “selectivity index relative to 12 (fold better)” value [12] was 2.4 fold, the IC50 ([12]; cytotoxicity toward human lung fibroblasts) was 16000 nM and the solubility at 15 min ([13]; 0.1 M HCl, pH 1) was 1260 µg/mL (≈ 2690 µM). The solubility at 15 min ([13]; water, pH 7) was 9.9 µg/mL (≈ 21.1 µM), the Papp A→B at 150 min, 2 µM [14] was 11.7 ×10⁻⁶ cm/s and the Papp B→A at 150 min, 2 µM [14] was 18.2 ×10⁻⁶ cm/s.

For `O=C(Nc1ccc2c(c1)B(O)OC2)c1ccc(F)cc1C(F)(F)F` [SCYX-6759], the “cure rate of the CNS infection” value ([1]; oral 50 mg/kg twice daily (b.i.d.)) is given as 83%.
